Assays:
Assay type in all cases: in vivo
mice [1] = experiment: Elevated Plus Maze (model for agoraphobia), mice; details: 10 mg/kg p.o., 3 min test period
Description: (§1) A typical model for Agoraphobia is named Elevated Plus Maze according to S. Pellow, P. Chopin, S. E. File, M. Briley, J. Neurosci. Meth., 1985,14: 145-167.
(§2) The apparatus consists of an X-shaped platform elevated from the floor, with two “open” unprotected arms and two “closed” protected arms, with animals having free access to both arms. The rat or mouse is placed in the centre of the arms, and the number of entires made and the time spent on the open arms is measured in a 3 min test period. Normal animals have very low basal levels, i.e. avoid entering the open arms and stay only a for a very brief period on open arms.
(§3) In rats, a dose of 10 mg/kg p.o. increased number of entries by 56% and time spent on open arms by 76%.

rats [2] = experiment: Elevated Plus Maze (model for agoraphobia), rats; details: 10 mg/kg p.o., 3 min test period
Description: as §1, §2, §3

rats [3] = experiment: Social Interaction Test (model for social phobia); details: pairs of unfamiliar rats, oral dose of 10 mg/kg, 300 sec total time; vehicle 116 sec
Description: A model for social phobia is the Social Interaction Test according to S. File, J. R. G Hyde, J. Pharm. Pharmacol. 1977, 29: 735-738. Pairs of rats not familiar with each other are placed in an open test box brightly lit (aversive condition), and the number and duration of social contacts during a 5 min test session are recorded.
1-[4-(5-cyanoindol-3-yl)butyl]-4-(2-carbamoyl-benzofuran-5-yl)-piperazine or one of its physiologically acceptable salts, in particular 1-[4-(5-cyanoindol-3-yl)butyl]-4-(2-carbamoyl-benzofuran-5-yl)-piperazine hydrochloride, increase the time spent in social interaction. For example, for an oral dose of 10 mg/kg of 1-[4-(5-cyanoindol-3-yl)butyl]-4-(2-carbamoyl-benzofuran-5-yl)-piperazine hydrochloride the pairs of rats unfamiliar to each other spend 144 sec of the 300 sec of total time with social interaction compared to 116 sec for the vehicle treated pairs of rats.

rats [4] = experiment: Models for anxiety associated with posttraumatic stress (cat stressor; hole board, elevated plus maze, acoustic startle); details: given after (acute treatment) and before (prophylactic treatment) the cat stressor
Text: Animal models of anxiety associated with posttraumatic stress in rats utilize the long-lasting behavioural changes induced by exposure to a native stressor. The therapeutic effects of a compound effective for the acute treatment of anxiety associated with posttraumatic stress are modelled by administration of the compound after exposure to the stressor. The therapeutic effects of a compound effective for the prophylactic treatment of anxiety associated with posttraumatic stress are modelled by administration of the compound before exposure to the stressor. Amongst the several behavioral test procedures, the following is most validated [R. E. Adamec and T. Shallow, Physiology Behavior, 1993, 54: 101-109; R. E. Adamec et al., Behav. Neurosci. 1997, 111: 435-449]. […] The hole board consists of a box (60 cm×60 cm) with four evenly spaced holes; the number of poking its head into a hole is counted for 5 minutes. […] The rat is placed in the centre of the arms, and the frequency of attempts to enter an open arm (risk assessment) as well as the time spent on the open and closed arms are measured. In the acoustic startle test, the rat is placed in a plexiglass cylinder, and a series of 20 white noise bursts of 120 dB out of a background noise of 60 dB is applied, and the latency to and the peak startle amplitude are measured. […]

mice [5] = experiment: Light-Dark Choice Test (model for generalized anxiety disorders); details: oral dose of 10 mg/kg, 5 min
Description: A typical model for generalized anxiety disorders is the Light-Dark Chaise Test […] according to J. N. Crawly, Pharmacol. Biochem Behav. 1981,15: 695-699.
The light-dark choise apparatus consists of two connected boxes with one box darkened and the other one highly illuminated. A mouse is placed in one box, and the time spent in lit box and the number of transitions between boxes are measured over a period of 5 min. Normal mice only have low numbers of entries to the lit compartment and spent most time in the dark compartment.
1-[4-(5-cyanoindol-3-yl)butyl]-4-(2-carbamoyl-benzofuran-5-yl)-piperazine or one of its physiologically acceptable salts, in particular 1-[4-(5-cyanoindol-3-yl)butyl]-4-(2-carbamoyl-benzofuran-5-yl)-piperazine hydrochloride, following oral application dose -dependently increase the number of transitions and time spent in lit compartment. For example, an oral dose of 10 mg/kg of 1-[4-(5-cyanoindol-3-yl)butyl]-4-(2-carbamoyl-benzofuran-5-yl)-piperazine hydrochloride increased the number of transitions by 73% and time spent in lit compartment by 31%.

mice or rats = experiment: Hyperactivity induced by a mixture of dexamphetamine and chlordiazepoxide (model of mania/bipolar disorders); details: compared with lithium and valproate
Text: A typical animal model of mania/bipolar disorders is the hyperactivity induced by a mixture of dexamphetamine and chlordiazepoxide according to A. L. Vale and F. Ratcliffe, Psychopharmacology, 1987; 91: 352-355, and B. J. Cao and N. A. Peng, Eur. J. Pharmacol., 1993; 237: 177-181. The dexamphetamine-chlordiazepoxide mixture induces strong hyperactivity in mice or rats.

[6] = Development of body weight, dogs
Text: Thus, differential effects on body weight indicating therapeutic efficacy in either obesity or anorexia depending on the dose range used are evident.

[7] = Abdominal constriction (writhing) test; details: 30 mg/kg p.c.
Description: Rapid procedures to test pain-relieving properties of drugs are the abdominal constriction (writhing) test according to E. Siegmund et all., Proc. Soc. Exp. Biol. Med. 1957, 95: 729-731 and the intradermal formalin test according to S. Hunskaar et al., J. Neurosci. Meth. 1985, 14: 69-76. For example, 1-[4-(5-cyanoindol-3-y1)butyl]-4-(2-carbamoyl-benzofuran-5-yl)-piperazine hydrochloride at 30 mg/kg p.c. reduced abdominal contrictions by 82%, and 10 mg/kg p.o. reduced the formalin-induced pain response by 79%.

## Cl.N#Cc1ccc2[nH]cc(CCCCN3CCN(c4ccc5oc(C(N)=O)cc5c4)CC3)c2c1 [1-[4-(5-cyanoindol-3-yl)butyl]-4-(2-carbamoyl-benzofuran-5-yl)-piperazine hydrochloride]
Mice [1]
  increase of number of entries on open arms: 157%
  increase of time spent on open arms: 105%
Rats [2]
  increase of number of entries on open arms: 56%
  increase of time spent on open arms: 76%
Rats [3]
  time spent in social interaction: 144 s
Rats [4]
  effect in models for anxiety associated with posttraumatic stress: effective
Mice [5]
  increase of number of transitions: 73%
  increase of time spent in lit compartment: 31%
Mice or rats
  inhibition of hyperactivity induced by the dexamphetamine-chlordiazepoxide mixture: to the same degree as do lithium and valproate
[6]
  development of body weight: reduced development of body weight
[7]
  reduction of abdominal constrictions: 82%

Reference: patent US7642261B2, “Use of 1-[4-(5-cyanoindol-3-yl)butyl]-4-(2-carbamoyl-benzofuran-5-yl)-piperazine and its physiologically acceptable salts” (Merck Patent GmbH, priority 2002, dated 2010)
